Experimental data: patent US20260027096A1, “PHD INHIBITORS” (Oxford University Innovation Limited, priority 2023, published 2026)
Entries after “also recorded” stand apart in the source; their conditions may differ.

Columns and labels:
[1] = system: HIF-2α in MOLM13, OCI-AML3, MV411 and THP-1 cells; experiment: Western blot of HIF-2α in human AML cell lines; assay type: cell-based; conditions: 48 hrs
Experimental: Equipped with currently available PHD inhibitors and newly generated IOX5 (68, example 46), the impact of pharmacological PHD inhibition on AML cells was assessed. […] Thus, while PHD inhibition consistently stabilises HIF-1α protein across all tested AML cell lines, HIF-2α stabilisation is variable and cell line-specific.

human THP-1 cells = experiment: Proliferation and apoptosis of THP-1 cells; assay type: cell-based; conditions: THP-1, 50 μM
From the text: (§1) Viable cells were counted by trypan blue exclusion at the indicated time points. To analyse cells undergoing apoptosis, cells were suspended in binding buffer containing PE-conjugated Annexin-V or FITC-conjugated Annexin-V, and either PI or DAPI.
To determine consequences of Daprodustat (2) and IOX5 (68, example 46) treatment on AML cells driven by the MLL-AF9→MEIS1/HOXA9 axis, mouse iMLL-AF9-and Meis1Hoxa9-transformed AML cells were employed, as well as human THP-1 cells, which harbour the MIL-AF9 translocation. […] Thus, providing compelling evidence that PHD inhibition compromises AML cells driven by the MLL-AF9→MEIS1/HOXA9 axis.

[2] = system: murine AML cells harbouring FLT3-ITD mutations (with and without NPM1 mutations), PML-RARα and AML1-ETO; experiment: Proliferation and apoptosis of murine AML cells with other drivers; assay type: cell-based, mouse
From the text: as §1
To validate the anti-leukaemic effect of PHD inhibition on AML cells transformed by drivers independent from the MLL/Meis1/Hoxa9 axis, murine AML cells harbouring FLT3-ITD mutations were employed (with and without NPM1 mutations), PML-RARα and AML1-ETO.

[3] = system: primary human AML cells (patient samples); experiment: Apoptosis of primary human AML patient samples; assay type: cell-based; conditions: 50 μM
Experimental: Frozen AML samples were retrieved from Barts Cancer Institute Biobank and quickly thawed at 37° C. Upon thawing, T cells were depleted from all samples using EasySep™ Human TCR Alpha/Beta Depletion Kit (Stem Cell Technologies, #17847). Enriched samples were plated in concentration 0.4-1.0×10^6/mL in Myelocult H5100 medium (Stem Cell Technologies, #05150) supplemented with 20 ng/ml IL-3, G-CSF and TPO (Biolegend) in co-culture with irradiated MS-5 cells and treated with 50 μM Dap, 50 μM IOX5 (68, example 46), 1 μM Venetoclax or vehicle control for 7 days. After 3 days of treatment, half the sample was used for plating CFU assays and initial analyses, the other half was given fresh medium containing the corresponding agent. After 7 days, viable cell numbers were counted, viability was assessed using Annexin V FITC/PI stain, cell cycle was measured using PI, and the expression of CD45, CD34, CD11b and CD14 was determined. CFC assays were counted 11 days after plating. Samples were deemed sensitive to treatment if either a decrease in viability or a decrease in proliferation, as validated by cell cycle phase distribution, was detected.
To investigate the clinical utility of PHD inhibition in human AML, it was next determined the impact of Dap or IOX5 (68, example 46) on AML patient samples (FIG. 29), focusing on poor-risk AML, which is characterised by a particularly low overall patient survival rate^73.
Finally, the clinical applicability of PHD inhibition in AML was validated by treating independent patient-derived primary AML cells with Daprodustat (2) and IOX5 (68, example 46). […] Taken together, Examples 163 to 167 provide genetic and pharmacological evidence that PHD inhibition is a plausible therapeutic strategy in AML.

[4] = system: murine iMLL-AF9 LSK cells in DOX-treated recipient mice; experiment: iMLL-AF9 LSK cell transplantation AML model; assay type: in vivo, mouse; conditions: vs vehicle
From the text: (A) 100,000 THP-1 cells were transplanted into NBSGW recipient mice. […] (B-C) Percentage of human CD45+CD33+ and human CD45+CD14+ cells in the BM and spleen, respectively (n=4-5). (D) 100,000 OCI-AML3 cells were transplanted into NBSGW recipient mice. […] (E) Percentage of human CD45+CD33+CD14+ cells in the liver, BM and PB, respectively (n=3-7). (F) 2,000 LSK cells from iMLL-AF9;Control mice were sorted and transplanted into irradiated recipient mice. […] (H) LDA in secondary recipients transplanted with indicated doses of CD45.2+BM cells from primary recipients (n=9-10 per dose). (I) Plot showing Poisson statistical analysis. […] LSC frequencies were calculated using the ELDA software 121. […]
For primary transplantations of leukemic cells, 100,000 Meis1/Hoxa9-transduced c-Kit^+ cells or 2,000 iMLL-AF9 Lin Sca-1^+c-Kit^+ (LSK) cells were transplanted into lethally irradiated CD45.1^+/CD45.2^+ recipient mice (together with 200,000 unfractionated support CD45.1^+ wild-type BM cells). All recipient were culled upon reaching their humane endpoint as recorded in survival curves.
For secondary transplantations of leukaemic cells, 50,000 cells harvested from primary recipients were transplanted into lethally irradiated CD45.1+/CD45.2+recipient mice (together with 200,000 unfractionated support CD45.1+wild-type BM cells). […] LSC frequency was calculated using ELDA software^121. […]

SMILES	HIF-2α protein level (western blot) ([1]; MOLM13 and MV411 cells)	HIF-2α protein level (western blot) ([1]; OCI-AML3 and THP-1 cells)	apoptosis (human THP-1 cells)	proliferation (human THP-1 cells)	apoptosis (Annexin-V+DAPI+) [2]	proliferation [2]	apoptosis of primary human AML cells [3]	survival of leukaemic mice ([4]; i.p. twice daily for 14 days)	LSC frequency (limiting dilution assay) ([4]; secondary recipients)	apoptosis of primary human AML cells ([3]; listed as Dap)
O=C(NCC1CCC(C(F)(F)F)CC1)c1c[nH]c(-n2cccn2)cc1=O (stereo not drawn) [IOX5]	did not induce any HIF-2α stabilisation	stabilised HIF-2α protein levels	induced their apoptosis	compromised their proliferative capacity	induced apoptosis	reduced the proliferative rate	clearly increased apoptosis; also recorded: significantly increased primary human AML cell apoptosis	significantly increased survival of leukaemic mice	significantly decreased LSC frequency	–
O=C(O)CNC(=O)c1c(O)n(C2CCCCC2)c(=O)n(C2CCCCC2)c1=O [Daprodustat, daprodustat, reference compound]	–	–	induced their apoptosis	compromised their proliferative capacity	induced apoptosis	reduced the proliferative rate	significantly increased primary human AML cell apoptosis	–	–	clearly increased apoptosis
